Data published in BindingDB's records for doi:10.1021/acs.jmedchem.5b00109 (Peking Union Medical College, 2015).
pIC50: −log10 of the molar value.

Experiment: Inhibition of HIV-1 HXB2 gp41 N-terminal heptad repeat-mediated fusion between infected HL2/3 cells to target TZM-bl cells after 6 hrs by luciferase reporter gene assay

Row | Substance | pIC50
1 | H-MTWEEWDKKIEEYTKKIEELIKKS-OH | 8.64
2 | H-MTWEEWDKKIEEYTKKIEELI-OH | 8.66
3 | H-TTWEAWDRAIAEYAARIEALIR-OH | < 5.65
4 | H-MTWEAWDRAIAEYAARIEALIR-OH | 7.23
5 | H-MTWEAWDRAIAEYAARIEALIRAAQEQQEKNEAALREL-OH | 9.07
6 | H-TTWEEWDKKIEEYTKKIEELIKKS-OH | 7.74
7 | H-WEAWDRAIAEYAARIEALIRAAQEQQEKNEAALREL-OH | 9.47
